Results as given in PMC7827406, “Structure–Activity Relationship (SAR) Study of Spautin-1 to Entail the Discovery of Novel NEK4 Inhibitors” (International Journal of Molecular Sciences, 2021).
Like-named read-outs stand apart in the source and are kept apart here.

How the values were obtained:
Assay in all cases: biochemical
Parameters in all cases: Eurofins KinaseProfiler full panel at Km ATP, residual kinase activity (%) relative to DMSO
[1] = biological target: HIPK3(h) (Homo sapiens, UniProt Q9H422)
Outline: (§1)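 Radiometric kinase activity assays were run with ATP at Km and compounds at 10 µM, and remaining activity (%) was reported. A separate competitive binding screen measured DNA-tagged kinase displaced from immobilized active-site ligands by qPCR, giving percent kinase still bound at 10 µM compound in DMSO.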

[2] = biological target: EphA5(h) (Homo sapiens, UniProt P54756)
Outline: as §1

[3] = biological target: T1, IKKβ(h) (Homo sapiens, UniProt O14920)
T1 construct: gene IKBKB
T1 sequence (O14920 1-756): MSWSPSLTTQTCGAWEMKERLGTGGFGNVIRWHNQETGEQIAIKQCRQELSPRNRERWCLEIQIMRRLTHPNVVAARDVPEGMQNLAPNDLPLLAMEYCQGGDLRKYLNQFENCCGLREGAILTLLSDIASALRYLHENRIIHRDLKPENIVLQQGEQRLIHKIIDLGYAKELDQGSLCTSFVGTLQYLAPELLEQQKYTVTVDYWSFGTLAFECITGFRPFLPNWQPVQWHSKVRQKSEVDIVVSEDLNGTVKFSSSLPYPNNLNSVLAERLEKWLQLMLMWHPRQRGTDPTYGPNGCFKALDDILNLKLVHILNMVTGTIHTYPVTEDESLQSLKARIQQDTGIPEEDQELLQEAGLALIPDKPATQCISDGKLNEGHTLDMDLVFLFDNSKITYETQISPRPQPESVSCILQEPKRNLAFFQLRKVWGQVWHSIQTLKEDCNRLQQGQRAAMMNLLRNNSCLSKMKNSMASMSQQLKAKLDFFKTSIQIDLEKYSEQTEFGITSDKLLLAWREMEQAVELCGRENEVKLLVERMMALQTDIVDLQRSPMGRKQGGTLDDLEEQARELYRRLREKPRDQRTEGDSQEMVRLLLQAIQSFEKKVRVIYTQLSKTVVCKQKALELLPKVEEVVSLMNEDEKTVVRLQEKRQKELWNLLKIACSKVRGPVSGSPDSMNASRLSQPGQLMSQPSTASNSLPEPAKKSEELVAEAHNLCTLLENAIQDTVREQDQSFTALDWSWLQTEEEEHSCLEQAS
Outline: as §1

[4] = biological target: CDK6/cyclinD3(h) (Homo sapiens, UniProt Q00534)
Outline: as §1

[5] = biological target: T2, AMPKα1(h) (Homo sapiens, UniProt Q13131)
T2 construct: gene PRKAA1
Outline: as §1

[6] = biological target: T3, ROCK-II(h) (Homo sapiens, UniProt O75116)
T3 construct: gene ROCK2
Outline: as §1

[7] = biological target: T4, TrkA(h) (Homo sapiens, UniProt P04629)
T4 construct: gene NTRK1
Outline: as §1

[8] = biological target: CDK9/cyclin T1(h) (Homo sapiens, UniProt P50750)
Outline: as §1

[9] = biological target: T5, PI3 Kinase (p110b/p85b)(m) (Mus musculus, UniProt Q8BTI9)
T5 construct: gene Pik3cb
Outline: as §1

[10] = read-out: Residual activity (%) 5ay
[11] = read-out: Residual activity (%) Spautin-1 5aa
[12] = read-out: Residual activity (%) 5at
[13] = read-out: Residual activity (%) 5as

T2 sequence (Q13131 whole entry): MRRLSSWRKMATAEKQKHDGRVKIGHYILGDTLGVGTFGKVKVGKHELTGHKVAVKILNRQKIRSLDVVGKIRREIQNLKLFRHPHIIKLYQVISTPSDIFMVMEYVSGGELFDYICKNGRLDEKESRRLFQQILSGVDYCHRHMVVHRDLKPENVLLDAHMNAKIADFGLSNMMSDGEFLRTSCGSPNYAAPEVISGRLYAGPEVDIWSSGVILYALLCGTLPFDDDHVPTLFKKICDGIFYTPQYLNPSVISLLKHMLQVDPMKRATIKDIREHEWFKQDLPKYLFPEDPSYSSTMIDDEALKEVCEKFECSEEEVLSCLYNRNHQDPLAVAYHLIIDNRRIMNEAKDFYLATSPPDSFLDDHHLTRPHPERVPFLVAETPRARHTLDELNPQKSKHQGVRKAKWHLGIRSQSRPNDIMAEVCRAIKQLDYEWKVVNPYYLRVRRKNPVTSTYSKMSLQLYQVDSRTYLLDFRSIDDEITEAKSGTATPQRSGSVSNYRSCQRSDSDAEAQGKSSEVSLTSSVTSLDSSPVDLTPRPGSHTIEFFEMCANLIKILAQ
T2 sequence (P54619 whole entry partner): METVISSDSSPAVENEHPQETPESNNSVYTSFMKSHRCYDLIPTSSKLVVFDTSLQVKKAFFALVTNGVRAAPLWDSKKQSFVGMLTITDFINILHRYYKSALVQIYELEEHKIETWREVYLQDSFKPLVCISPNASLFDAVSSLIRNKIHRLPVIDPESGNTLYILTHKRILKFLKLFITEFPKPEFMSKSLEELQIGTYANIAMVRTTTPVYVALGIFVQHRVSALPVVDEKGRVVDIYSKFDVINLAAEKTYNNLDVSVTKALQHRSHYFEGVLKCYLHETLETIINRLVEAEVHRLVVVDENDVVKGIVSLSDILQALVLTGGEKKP
T2 sequence (Q9Y478 whole entry partner): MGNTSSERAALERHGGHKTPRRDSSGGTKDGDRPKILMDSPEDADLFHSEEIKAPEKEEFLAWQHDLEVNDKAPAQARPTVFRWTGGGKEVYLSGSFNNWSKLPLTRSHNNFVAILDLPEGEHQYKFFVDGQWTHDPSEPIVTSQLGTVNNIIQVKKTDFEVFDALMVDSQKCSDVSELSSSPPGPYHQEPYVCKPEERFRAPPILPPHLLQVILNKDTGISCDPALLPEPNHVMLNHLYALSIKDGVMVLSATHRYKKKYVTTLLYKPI
Sequence of CDK6/cyclinD3(h) (Q00534 whole entry): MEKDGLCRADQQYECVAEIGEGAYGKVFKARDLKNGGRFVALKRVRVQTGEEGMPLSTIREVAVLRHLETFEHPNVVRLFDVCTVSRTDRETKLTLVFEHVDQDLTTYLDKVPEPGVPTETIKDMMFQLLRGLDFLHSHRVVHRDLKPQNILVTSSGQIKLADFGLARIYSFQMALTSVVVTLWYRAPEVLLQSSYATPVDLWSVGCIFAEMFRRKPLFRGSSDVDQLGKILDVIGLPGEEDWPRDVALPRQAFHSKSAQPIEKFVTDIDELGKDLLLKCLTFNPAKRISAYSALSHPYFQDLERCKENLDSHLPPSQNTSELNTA
Sequence of CDK6/cyclinD3(h) (P30281 whole entry partner): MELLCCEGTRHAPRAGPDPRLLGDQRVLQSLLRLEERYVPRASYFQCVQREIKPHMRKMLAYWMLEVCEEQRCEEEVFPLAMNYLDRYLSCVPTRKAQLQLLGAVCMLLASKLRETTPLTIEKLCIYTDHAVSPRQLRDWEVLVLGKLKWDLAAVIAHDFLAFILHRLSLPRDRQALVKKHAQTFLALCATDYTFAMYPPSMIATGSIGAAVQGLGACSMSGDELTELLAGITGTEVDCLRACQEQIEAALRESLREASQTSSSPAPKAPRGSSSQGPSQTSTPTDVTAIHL
Sequence of HIPK3(h) (Q9H422 whole entry): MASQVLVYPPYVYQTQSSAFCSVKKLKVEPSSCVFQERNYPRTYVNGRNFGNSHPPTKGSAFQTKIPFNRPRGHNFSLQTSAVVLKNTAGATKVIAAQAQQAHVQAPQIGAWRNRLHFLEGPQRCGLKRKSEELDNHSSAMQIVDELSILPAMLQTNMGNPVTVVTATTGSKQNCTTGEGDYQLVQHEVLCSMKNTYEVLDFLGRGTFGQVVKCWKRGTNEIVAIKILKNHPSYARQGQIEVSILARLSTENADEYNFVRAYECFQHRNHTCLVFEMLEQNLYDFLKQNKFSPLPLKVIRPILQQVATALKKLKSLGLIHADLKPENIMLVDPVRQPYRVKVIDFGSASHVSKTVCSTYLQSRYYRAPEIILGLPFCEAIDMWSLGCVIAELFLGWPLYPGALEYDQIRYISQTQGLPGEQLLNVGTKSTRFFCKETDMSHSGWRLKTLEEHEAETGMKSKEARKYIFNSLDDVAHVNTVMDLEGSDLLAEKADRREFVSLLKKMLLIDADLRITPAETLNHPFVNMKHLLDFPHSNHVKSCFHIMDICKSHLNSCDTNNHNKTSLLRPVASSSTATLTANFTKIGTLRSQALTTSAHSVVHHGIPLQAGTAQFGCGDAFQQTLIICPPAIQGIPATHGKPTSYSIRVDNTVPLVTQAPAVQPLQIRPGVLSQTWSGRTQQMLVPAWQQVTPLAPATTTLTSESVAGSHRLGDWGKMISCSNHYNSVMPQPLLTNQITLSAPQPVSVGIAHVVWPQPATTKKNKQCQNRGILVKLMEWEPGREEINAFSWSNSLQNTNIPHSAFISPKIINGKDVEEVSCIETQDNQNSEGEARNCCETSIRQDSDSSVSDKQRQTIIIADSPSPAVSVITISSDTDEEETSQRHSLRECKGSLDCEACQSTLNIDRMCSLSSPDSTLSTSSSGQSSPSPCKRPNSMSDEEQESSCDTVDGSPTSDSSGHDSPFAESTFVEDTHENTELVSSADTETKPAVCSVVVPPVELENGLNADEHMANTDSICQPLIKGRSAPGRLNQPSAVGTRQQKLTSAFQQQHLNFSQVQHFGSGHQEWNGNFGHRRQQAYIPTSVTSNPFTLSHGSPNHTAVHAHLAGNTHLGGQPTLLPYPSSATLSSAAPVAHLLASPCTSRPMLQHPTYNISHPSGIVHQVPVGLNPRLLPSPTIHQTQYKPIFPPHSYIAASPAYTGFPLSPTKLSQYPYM
Sequence of EphA5(h) (P54756 whole entry): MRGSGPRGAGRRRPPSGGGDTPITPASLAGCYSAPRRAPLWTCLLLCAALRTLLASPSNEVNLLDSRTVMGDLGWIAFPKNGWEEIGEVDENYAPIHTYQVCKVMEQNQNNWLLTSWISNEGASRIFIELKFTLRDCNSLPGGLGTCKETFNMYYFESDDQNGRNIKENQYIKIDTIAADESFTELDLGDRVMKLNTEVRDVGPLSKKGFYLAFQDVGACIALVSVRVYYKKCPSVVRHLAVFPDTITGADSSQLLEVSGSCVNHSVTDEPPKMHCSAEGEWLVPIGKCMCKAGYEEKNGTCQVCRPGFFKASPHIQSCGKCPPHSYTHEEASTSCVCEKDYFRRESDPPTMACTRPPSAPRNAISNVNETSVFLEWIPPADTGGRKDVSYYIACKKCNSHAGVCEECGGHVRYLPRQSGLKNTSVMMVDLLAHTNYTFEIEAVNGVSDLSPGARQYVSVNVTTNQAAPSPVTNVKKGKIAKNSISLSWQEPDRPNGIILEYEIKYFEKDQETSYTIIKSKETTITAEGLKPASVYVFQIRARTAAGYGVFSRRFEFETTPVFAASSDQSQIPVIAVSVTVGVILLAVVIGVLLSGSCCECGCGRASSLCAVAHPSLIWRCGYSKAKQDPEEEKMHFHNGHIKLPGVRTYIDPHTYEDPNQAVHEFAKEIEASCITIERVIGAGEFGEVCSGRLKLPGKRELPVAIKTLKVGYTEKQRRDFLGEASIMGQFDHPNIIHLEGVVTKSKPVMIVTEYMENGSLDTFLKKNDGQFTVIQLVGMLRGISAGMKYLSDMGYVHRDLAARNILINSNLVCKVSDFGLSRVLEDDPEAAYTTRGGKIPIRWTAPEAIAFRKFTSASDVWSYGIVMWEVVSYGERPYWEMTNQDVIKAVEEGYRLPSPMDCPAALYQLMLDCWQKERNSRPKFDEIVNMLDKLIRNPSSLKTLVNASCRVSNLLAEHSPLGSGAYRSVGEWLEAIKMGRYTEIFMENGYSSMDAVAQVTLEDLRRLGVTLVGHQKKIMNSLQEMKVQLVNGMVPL
T4 sequence (P04629 whole entry): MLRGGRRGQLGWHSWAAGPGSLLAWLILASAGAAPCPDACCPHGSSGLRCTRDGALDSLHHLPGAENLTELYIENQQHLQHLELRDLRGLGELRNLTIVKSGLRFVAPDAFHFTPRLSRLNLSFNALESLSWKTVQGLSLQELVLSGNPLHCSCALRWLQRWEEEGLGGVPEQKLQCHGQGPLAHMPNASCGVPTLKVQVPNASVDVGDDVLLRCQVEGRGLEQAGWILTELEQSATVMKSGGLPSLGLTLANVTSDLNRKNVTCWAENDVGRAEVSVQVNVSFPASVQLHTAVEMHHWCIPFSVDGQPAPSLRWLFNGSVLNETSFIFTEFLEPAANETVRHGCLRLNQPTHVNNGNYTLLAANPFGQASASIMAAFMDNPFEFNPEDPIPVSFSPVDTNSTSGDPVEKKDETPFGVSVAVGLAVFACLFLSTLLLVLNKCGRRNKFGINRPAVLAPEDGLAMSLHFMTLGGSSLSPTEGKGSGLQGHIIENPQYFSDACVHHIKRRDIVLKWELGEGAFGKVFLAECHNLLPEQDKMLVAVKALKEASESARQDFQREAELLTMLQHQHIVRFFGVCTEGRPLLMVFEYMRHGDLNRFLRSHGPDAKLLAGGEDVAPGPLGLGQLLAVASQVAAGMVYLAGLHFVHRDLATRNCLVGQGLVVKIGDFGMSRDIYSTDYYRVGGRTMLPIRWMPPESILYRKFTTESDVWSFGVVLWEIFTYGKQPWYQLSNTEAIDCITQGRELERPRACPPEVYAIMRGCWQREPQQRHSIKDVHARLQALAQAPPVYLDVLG

Compound: COc1ccc2ncnc(Nc3cccc(F)c3)c2c1 [5ay, N-(3-Fluorophenyl)-6-Methoxy-4-Quinazolinamine]
- remaining activity at 10 µM [1, 10]: 84%
- remaining activity at 10 µM [2, 10]: 95%
- remaining activity at 10 µM [3, 10]: 107%
- remaining activity at 10 µM [4, 10]: 87%
- remaining activity at 10 µM [5, 10]: 100%
- remaining activity at 10 µM [6, 10]: 84%
- remaining activity at 10 µM [7, 10]: 70%
- remaining activity at 10 µM [8, 10]: 100%
- remaining activity at 10 µM [9, 10]: 89%

Compound: Fc1ccc(CNc2ncnc3ccc(F)cc23)cc1 [5aa, 6-Fluoro-N-(4-fluorobenzyl)-4-Quinazolinamine]
- remaining activity at 10 µM [1, 11]: 93%
- remaining activity at 10 µM [2, 11]: 90%
- remaining activity at 10 µM [3, 11]: 106%
- remaining activity at 10 µM [4, 11]: 102%
- remaining activity at 10 µM [5, 11]: 110%
- remaining activity at 10 µM [6, 11]: 88%
- remaining activity at 10 µM [7, 11]: 65%
- remaining activity at 10 µM [8, 11]: 104%
- remaining activity at 10 µM [9, 11]: 97%

Compound: Fc1ccc2ncnc(NCCc3ccc(Cl)cc3)c2c1 [5at, N-[2-(4-Chlorophenyl)Ethyl]-6-Fluoro-4-Quinazolinamine]
- remaining activity at 10 µM [1, 12]: 95%
- remaining activity at 10 µM [2, 12]: 87%
- remaining activity at 10 µM [3, 12]: 98%
- remaining activity at 10 µM [4, 12]: 98%
- remaining activity at 10 µM [5, 12]: 85%
- remaining activity at 10 µM [6, 12]: 79%
- remaining activity at 10 µM [7, 12]: 60%
- remaining activity at 10 µM [8, 12]: 86%
- remaining activity at 10 µM [9, 12]: 87%

Compound: Fc1ccc(CCNc2ncnc3ccc(F)cc23)cc1 [5as, 6-Fluoro-N-[2-(4-Fluorophenyl)Ethyl]-4-Quinazolinamine]
- remaining activity at 10 µM [1, 13]: 98%
- remaining activity at 10 µM [2, 13]: 99%
- remaining activity at 10 µM [3, 13]: 110%
- remaining activity at 10 µM [4, 13]: 96%
- remaining activity at 10 µM [5, 13]: 93%
- remaining activity at 10 µM [6, 13]: 81%
- remaining activity at 10 µM [7, 13]: 87%
- remaining activity at 10 µM [8, 13]: 93%
- remaining activity at 10 µM [9, 13]: 86%
